Laboratory results as given in article PMC5041076, “Ilex kaushue and Its Bioactive Component 3,5-Dicaffeoylquinic Acid Protected Mice from Lipopolysaccharide-Induced Acute Lung Injury” (Scientific Reports, 2016).
Like-named read-outs stand apart in the source and are kept apart here.

Columns and labels:
Human thrombin = Human thrombin (Homo sapiens, UniProt P00734); experiment: Serine protease enzyme inhibition assay, thrombin
Bovine chymotrypsin = molecular target: T1, Bovine chymotrypsin (Bos taurus, UniProt P00766); experiment: Serine protease enzyme inhibition assay, chymotrypsin; format: biochemical; conditions: mean ± S.E.M. (n ≥ 3)
T1 construct: purchased Sigma-Aldrich C4129

[1] = test system: fMLF/CB-activated neutrophils; experiment: O2.- generation in fMLF/CB-activated neutrophils (ferricytochrome c reduction); format: cell-based, human; conditions: for IC50 / IC50 O2^.− generation: fMLF/CB-activated human neutrophils; for efficacy relative to ursolic acid: fMLF-induced neutrophils
Description: (§1) All assays were performed as described previously[58],[59]. Neutrophils isolated from the blood of healthy volunteers (20–30 years old) were resuspended in a Ca^2+-free HBSS buffer (pH 7.4) at 4 °C before use. O2^.− generation was measured based on reduction of ferricytochrome c. In brief, after supplementation with 0.5 mg/ml ferricytochrome c and 1 mM Ca^2+, neutrophils were equilibrated at 37 °C for 2 min and incubated with the specified drugs for 5 min. Neutrophils were activated using 30 nM fMLF or 100 nM LTB4 for 10 min after addition of cytochalasin B (CB, 1 μg/mL) for 3 min. Changes in absorbance concomitant with reduction of ferricytochrome c at 550 nm were continuously monitored. For elastase release, neutrophils (6 × 10^5 cells/mL) were mixed with methoxysuccinyl-Ala-Ala-Pro-Val-pNA (100 μM) substrate at 37 °C for 5 min. […] Inhibition of superoxide generation and elastase release were calculated in keeping with previous reports.

Human cathepsin G = molecular target: T2, Human cathepsin G (Homo sapiens, UniProt P08311); experiment: Serine protease enzyme inhibition assay, cathepsin G; format: biochemical; conditions: mean ± S.E.M. (n ≥ 3)
T2 construct: purchased Enzo BML-SE283
T2 sequence (P08311 21-255): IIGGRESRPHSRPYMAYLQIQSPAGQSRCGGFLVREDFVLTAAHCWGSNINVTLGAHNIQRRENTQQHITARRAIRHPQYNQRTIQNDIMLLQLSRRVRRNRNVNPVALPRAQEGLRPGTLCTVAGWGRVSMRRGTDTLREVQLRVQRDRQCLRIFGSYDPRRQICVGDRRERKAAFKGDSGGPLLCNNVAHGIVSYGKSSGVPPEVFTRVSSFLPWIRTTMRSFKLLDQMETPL

[2] = molecular target: T3, Human neutrophil elastase (Homo sapiens, UniProt P08246); experiment: Serine protease enzyme inhibition assay, HNE; format: biochemical; conditions: for Inh % (HNE inhibition): at 30 M (so in the source); for selectivity of inhibitory effect among serine proteases: five serine proteases examined
T3 construct: purchased Enzo BML-SE284
T3 sequence (P08246 30-267): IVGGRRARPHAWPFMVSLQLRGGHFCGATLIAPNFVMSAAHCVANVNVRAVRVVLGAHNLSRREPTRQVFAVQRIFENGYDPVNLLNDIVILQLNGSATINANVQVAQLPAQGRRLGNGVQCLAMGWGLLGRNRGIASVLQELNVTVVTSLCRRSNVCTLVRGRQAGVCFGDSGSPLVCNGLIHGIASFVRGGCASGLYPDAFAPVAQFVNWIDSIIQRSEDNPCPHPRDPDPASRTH

[3] = test system: fMLF/CB-activated neutrophils; experiment: Elastase release in fMLF/CB-activated neutrophils; format: cell-based; conditions: for IC50: read-out: IC50 HNE (NE activity / elastase release)
Description: as §1

Human proteinase 3 = molecular target: T4, Human proteinase 3 (Homo sapiens, UniProt P24158); experiment: Serine protease enzyme inhibition assay, proteinase 3; format: biochemical; conditions: mean ± S.E.M. (n ≥ 3)
T4 construct: purchased Merk 539483
T4 sequence (P24158 28-256): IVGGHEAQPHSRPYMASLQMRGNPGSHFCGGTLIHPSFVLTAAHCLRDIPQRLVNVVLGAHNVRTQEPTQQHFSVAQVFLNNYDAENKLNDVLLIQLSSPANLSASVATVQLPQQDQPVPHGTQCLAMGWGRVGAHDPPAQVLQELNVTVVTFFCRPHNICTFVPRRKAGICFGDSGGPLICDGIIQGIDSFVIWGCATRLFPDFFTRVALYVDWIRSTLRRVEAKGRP

[4] = read-out: IC50 Thrombin, enzyme assay, mean ± S.E.M. (n ≥ 3)
[5] = enzyme assay, mean ± S.E.M. (n ≥ 3), read-out: IC50 HNE
[6] = fMLF/CB-activated human neutrophils
[7] = Table S3, read-out: IC50 HNE inhibitory activity
[8] = Neutrophil, fMLF/CB-activated human neutrophils

| IC50 (Human thrombin; [4]) [µM] | IC50 (Bovine chymotrypsin) [µM] | IC50 [1] [µM] | IC50 (Human cathepsin G) [µM] | IC50 [2, 5] [µM] | IC50 [3, 6] [µM] | IC50 (Human proteinase 3) [µM] | IC50 O2^.− generation [1] | IC50 [2, 7] [µM] | Inh % (HNE inhibition) ([2]; Table S3) [%] | IC50 ([1]; Neutrophil) [µM] | IC50 HNE (NE activity / elastase release) [3, 6] | IC50 ([3]; Homo sapiens, Neutrophil) [µM] | selectivity of inhibitory effect among serine proteases [2] | SMILES | IC50 (Human thrombin) [µM] | efficacy relative to ursolic acid [1] [fold] | IC50 [3, 8] [µM] |
| --- | --- | --- | --- | --- | --- | --- | --- | --- | --- | --- | --- | --- | --- | --- | --- | --- | --- |
| > 30 | 8.06 ± 0.4 | > 10 | > 30 | > 30 | > 10 | 7.62 ± 0.32 |  |  |  |  |  |  |  | CC1(C)[C@@H](O)CC[C@]2(C)[C@H]3C=CC4=C5[C@]6(CC[C@](C)(OC6=O)[C@@]5(C)O)CC[C@@]4(C)[C@]3(C)CC[C@@H]12 [Compound 11-1] |  |  |  |
|  |  | > 10 |  |  | > 10 |  | non-active | > 30 | 0.06 ± 4.79 |  |  |  |  | COc1cc(/C=C/C(=O)O)ccc1O [FA, ferulic acid, reference compound] |  |  |  |
| > 30 | > 30 | 2.81 ± 1 | > 30 | > 30 | > 10 | > 30 |  |  | -3.43 ± 4.85 |  |  |  |  | O=C(C=Cc1ccc(O)c(O)c1)OC1C(O)CC(O)(C(=O)O)CC1O (stereo not drawn) [Compound 2] |  |  |  |
| > 30 | > 30 | > 10 | > 30 | > 30 | > 10 | > 30 |  |  |  |  |  |  |  | C[C@@H]1O[C@@H](O[C@H]2[C@H](OC(=O)[C@]34CCC(C)(C)[C@@H](O)[C@H]3C3=CC[C@@H]5[C@@]6(C)CC[C@H](O[C@@H]7OC[C@H](O)[C@H](O[C@@H]8O[C@H](CO)[C@@H](O)[C@H](O)[C@H]8O)[C@H]7O[C@@H]7O[C@@H](C)[C@H](O)[C@@H](O)[C@H]7O)C(C)(C)[C@@H]6CC[C@@]5(C)[C@]3(C)CC4)O[C@H](CO)[C@@H](O)[C@@H]2O)[C@H](O)[C@H](O)[C@H]1O [Compound 14] |  |  |  |
|  |  |  |  |  |  |  |  |  |  | > 10 |  | > 10 |  | O=C(O)[C@]1(O)C[C@@H](O)[C@@H](O)[C@H](O)C1 [QA, quinic acid] |  |  |  |
| > 30 | > 30 | 1.54 ± 0.29 | > 30 | > 30 | > 10 | > 30 |  |  | -2.99 ± 1.35 |  |  |  |  | O=C(C=Cc1ccc(O)c(O)c1)OC1CC(O)(C(=O)O)CC(O)C1O (stereo not drawn) [Compound 1] |  |  |  |
| 2.98 ± 0.35 | 6.04 ± 0.29 | > 10 | > 30 | 8.55 ± 1.77 | > 10 | 1.99 ± 0.25 |  |  |  |  |  |  | non-selective inhibitory effects | C=C1C2=C3C=C[C@@H]4[C@@]5(C)CC[C@H](O)C(C)(C)[C@@H]5CC[C@@]4(C)[C@]3(C)CC[C@@]23CC[C@]1(C)OC3=O [Compound 11-2] |  |  |  |
| > 30 | > 30 | 4.77 ± 0.4 | > 30 | > 30 | 2.84 ± 1.02 | > 30 |  |  |  |  |  |  |  | CC1(C)CC[C@]2(C(=O)O)CC[C@]3(C)C(=CC[C@@H]4[C@@]5(C)CC[C@H](O)C(C)(C)[C@@H]5CC[C@]43C)[C@@H]2[C@@H]1O [Compound 14-1] |  |  |  |
|  |  | 1.29 ± 0.09 |  |  | > 10 |  | potently inhibit | > 30 | 10.58 ± 4.03 |  |  |  |  | O=C(/C=C/c1ccc(O)c(O)c1)O[C@H](Cc1ccc(O)c(O)c1)C(=O)O [RA, rosaminiric acid, reference compound] |  |  |  |
|  |  |  |  |  |  |  | non-active | > 30 | -3.63 ± 3.91 | > 10 |  | > 10 |  | O=C(O)C=Cc1cccc(O)c1 [Compound 3-HCA, 3-hydroxycinnamic acid, reference compound] |  |  |  |
|  | 11.4 ± 0.2 |  | > 30 | 24.7 ± 0.48 |  | 14.8 ± 0.59 | good inhibitory effects |  |  | 0.26 ± 0.1 | good inhibitory effects | 0.2 ± 0.02 | non-selective inhibitory effects | CC1=C(C)C2C3=CCC4[C@@]5(C)CC[C@H](O)C(C)(C)C5CC[C@@]4(C)[C@]3(C)CC[C@@]2(C(=O)O)CC1 (stereo partly drawn) [Compound 15-2, sanguisorbigenin] | 11.8 ± 2.2 | 5 |  |
|  | 6.06 ± 0.05 |  | > 30 | 11.5 ± 1.28 |  | 7.33 ± 0.65 | good inhibitory effects |  |  | 0.99 ± 0.26 | good inhibitory effects | 1.07 ± 0.33 | non-selective inhibitory effects | C[C@H]1[C@H](C)CC[C@]2(C(=O)O)CC[C@]3(C)C(=CC[C@@H]4[C@@]5(C)CC[C@H](O)C(C)(C)[C@@H]5CC[C@]43C)[C@H]12 [Compound 9, ursolic acid] | 6.37 ± 0.6 |  |  |
|  |  |  |  |  |  |  |  |  |  |  |  |  |  | NCCc1ccc(S(=O)(=O)F)cc1 [AEBSF, 4-(2-aminoethyl)-benzenesulphonyl fluoride, reference compound] | 251 ± 8.78 |  |  |
|  |  |  |  |  |  | 0.56 ± 0.06 |  |  |  |  |  |  |  | CC(C)(C)C(=O)Oc1ccc(S(=O)(=O)Nc2ccccc2C(=O)NCC(=O)O)cc1 [Elaspol, reference compound] |  |  |  |
|  |  |  |  |  |  |  | non-active | > 30 | -4.00 ± 3.42 | > 10 |  | > 10 |  | O=C(O)/C=C/c1ccc(O)cc1 [p-CA, p-coumaric acid, reference compound] |  |  |  |
|  |  |  |  |  |  |  | potently inhibit | > 30 |  | 1.42 ± 0.02 |  | > 10 |  | O=C(O)/C=C/c1ccc(O)c(O)c1 [CA, caffeic acid, reference compound] |  |  |  |

| SMILES | IC50 (Human thrombin; [4]) [µM] | IC50 (Bovine chymotrypsin) [µM] | IC50 [1] [µM] | IC50 (Human cathepsin G) [µM] | IC50 [2, 5] [µM] | IC50 [3, 6] [µM] | IC50 (Human proteinase 3) [µM] | IC50 O2^.− generation [1] | IC50 [2, 7] [µM] | Inh % (HNE inhibition) ([2]; Table S3) [%] | IC50 ([1]; Neutrophil) [µM] | IC50 HNE (NE activity / elastase release) [3, 6] | IC50 ([3]; Homo sapiens, Neutrophil) [µM] | selectivity of inhibitory effect among serine proteases [2] | IC50 (Human thrombin) [µM] | efficacy relative to ursolic acid [1] [fold] | IC50 [3, 8] [µM] |
| --- | --- | --- | --- | --- | --- | --- | --- | --- | --- | --- | --- | --- | --- | --- | --- | --- | --- |
| CC1=C2C3=CCC4[C@@]5(C)CC[C@H](O)C(C)(C)C5CC[C@@]4(C)[C@]3(C)CC[C@@]2(C(=O)O)CC[C@H]1C (stereo partly drawn) [Compound 15-1, randialic acid B] |  | 16.98 ± 0.1 |  | > 30 | > 30 |  | 17.44 ± 0.16 | good inhibitory effects |  |  | 0.14 ± 0.09 | good inhibitory effects |  |  | 24.9 ± 1.33 | 5 | 0.06 ± 0.01 |
| O=C(/C=C/c1ccc(O)c(O)c1)O[C@@H]1C[C@](O)(C(=O)O)C[C@@H](O)[C@H]1O [Compound 3, Chlorogenic acid] |  | > 30 |  | > 30 | > 30 |  | > 30 |  |  | -4.76 ± 3.36 | 2.56 ± 1.06 |  |  |  | > 30 |  | > 10 |
| N#C/C=C1/C=C[C@@H](O)C[C@H]1O[C@@H]1O[C@H](CO)[C@@H](O)[C@H](O)[C@H]1O [Compound 18, menisdaurin] | > 30 | > 30 | > 10 | > 30 | > 30 | > 10 | > 30 |  |  |  |  |  |  |  |  |  |  |
| N#CC=C1C=CC(O)CC1OC1OC(CO)C(O)C(O)C1O (stereo not drawn) [Compound 19, menisdaurin F] |  | > 30 |  | > 30 | > 30 |  | > 30 |  |  |  | > 10 |  | > 10 |  | > 30 |  |  |
| O=C(O)c1cc(O)c(O)c(O)c1 [THBA, 3,4,5-trihyroxybenzoic acid, reference compound] |  |  | 1.14 ± 0.08 |  |  | > 10 |  | potently inhibit |  |  |  |  |  |  |  |  |  |
